From patent US20090076044A1, “VEGFR INHIBITORS CONTAINING A ZINC BINDING MOIETY” (priority 2007, published 2009)

How the values were obtained:
Assay type in all cases: biochemical
human EGFR = molecular target: T1, human EGFR (Homo sapiens, UniProt P00533); experiment: EGFR kinase assay (HTScan EGF Receptor Kinase Assay Kit, DELFIA); settings: 200 μM ATP
T1 construct: human EGFR (His672-Ala1210); purchased Cell Signaling Technologies; host or cells: baculovirus expression system
Procedure: (e) An In Vitro Assay which Determines the Ability of a Test Compound to Inhibit EGFR Kinase.
The ability of compounds to inhibit receptor kinase (EGFR) activity was assayed using HTScan™ EGF Receptor Kinase Assay Kits (Cell Signaling Technologies, Danvers, Mass.). EGFR tyrosine kinase was obtained as GST-kinase fusion protein which was produced using a baculovirus expression system with a construct expressing human EGFR (His672-Ala1210) (GenBank Accession No. NM_005228) with an amino-terminal GST tag. The protein was purified by one-step affinity chromatography using glutathione-agarose. An anti-phosphotyrosine monoclonal antibody, P-Tyr-100, was used to detect phosphorylation of biotinylated substrate peptides (EGFR), Biotin-PTP1B (Tyr66). Enzymatic activity was tested in 60 mM HEPES, 5 mM MgCl2 5 mM MnCl2 200 μM ATP, 1.25 mM DTT, 3 μM Na3VO4, 1.5 mM peptide, and 50 ng EGF Receptor Kinase. Bound antibody was detected using the DELFIA system (PerkinElmer, Wellesley, Mass.) consisting of DELFIA® Europium-labeled Anti-mouse IgG (PerkinElmer, #AD0124), DELFIA® Enhancement Solution (PerkinElmer, #1244-105), and a DELFIA® Streptavidin coated, 96-well Plate (PerkinElmer, AAAND-0005). Fluorescence was measured on a WALLAC Victor 2 plate reader and reported as relative fluorescence units (RFU). Data were plotted using GraphPad Prism (v4.0a) and IC50's calculated using a sigmoidal dose response curve fitting algorithm.
Test compounds were dissolved in dimethylsulfoxide (DMSO) to give a 20 mM working stock concentration. Each assay was setup as follows: Added 100 μl of 10 mM ATP to 1.25 ml 6 mM substrate peptide. Diluted the mixture with dH2O to 2.5 ml to make 2×ATP/substrate cocktail ([ATP]=[…], [substrate]=3 mM). Immediately transfer enzyme from −80° C. to ice. Allowed enzyme to thaw on ice. Microcentrifuged briefly at 4° C. to bring liquid to the bottom of the vial. Returned immediately to ice. Added 10 μl of DTT (1.25 mM) to 2.5 ml of 4× HTScan™ Tyrosine Kinase Buffer (240 mM HEPES pH 7.5, 20 mM MgCl2, 20 mM MnCl, 12 mM NaVO3) to make DTT/Kinase buffer. Transfer 1.25 ml of DTT/Kinase buffer to enzyme tube to make 4× reaction cocktail ([enzyme]=4 ng/μL in 4× reaction cocktail). Incubated 12.5 μl of the 4× reaction cocktail with 12.5 μl/well of prediluted compound of interest (usually around 10 μM) for 5 minutes at room temperature. Added 25 μl of 2×ATP/substrate cocktail to 25 μl/well preincubated reaction cocktail/compound. Incubated reaction plate at room temperature for 30 minutes. Added 50 μl/well Stop Buffer (50 mM EDTA, pH 8) to stop the reaction. Transferred 25 μl of each reaction and 75 μl dH2O/well to a 96-well streptavidin-coated plate and incubated at room temperature for 60 minutes. Washed three times with 200 μl/well PBS/T (PBS, 0.05% Tween-20). Diluted primary antibody, Phospho-Tyrosine mAb (P-Tyr-100), 1:1000 in PBS/T with 1% bovine serum albumin (BSA). Added 100 μl/well primary antibody. Incubated at room temperature for 60 minutes. Washed three times with 200 μl/well PBS/T. Diluted Europium labeled anti-mouse IgG 1:500 in PBS/T with 1% BSA. Added 100 μl/well diluted antibody. Incubated at room temperature for 30 minutes. Washed five times with 200 μl/well PBS/T. Added 100 μl/well DELFIA® Enhancement Solution. Incubated at room temperature for 5 minutes. Detected 615 nm fluorescence emission with appropriate Time-Resolved Plate Reader.

HDAC = HDAC fluorimetric assay kit (HeLa nuclear extract)
Procedure: (b) An In Vitro Assay which Determines the Ability of a Test Compound to Inhibit HDAC Enzymatic Activity.
HDAC inhibitors were screened using an HDAC fluorimetric assay kit (AK-500, Biomol, Plymouth Meeting, Pa.). Test compounds were dissolved in dimethylsulphoxide (DMSO) to give a 20 mM working stock concentration. Fluorescence was measured on a WALLAC Victor 2 plate reader and reported as relative fluorescence units (RFU). Data were plotted using GraphPad Prism (v4.0a) and IC50's calculated using a sigmoidal dose response curve fitting algorithm. Each assay was setup as follows: Defrosted all kit components and kept on ice until use. Diluted HeLa nuclear extract 1:29 in Assay Buffer (50 mM Tris/Cl, pH 8.0, 137 mM NaCl, 2.7 mM KCl, 1 mM MgCl2). Prepared dilutions of Trichostatin A (TSA, positive control) and tested compounds in assay buffer (5× of final concentration). Diluted Fluor de Lys™ Substrate in assay buffer to 100 uM (50 fold=2× final). Diluted Fluor de Lys™ developer concentrate 20-fold (e.g. 50 μl plus 950 μl Assay Buffer) in cold assay buffer. Second, diluted the 0.2 mM Trichostatin A 100-fold in the 1× Developer (e.g. 10 μl in 1 ml; final Trichostatin A concentration in the 1× Developer=2 μM; final concentration after addition to HDAC/Substrate reaction=1 μM). Added Assay buffer, diluted trichostatin A or test inhibitor to appropriate wells of the microtiter plate. Added diluted HeLa extract or other HDAC sample to all wells except for negative controls. Allowed diluted Fluor de Lys™ Substrate and the samples in the microtiter plate to equilibrate to assay temperature (e.g. 25 or 37° C. Initiated HDAC reactions by adding diluted substrate (25 μl) to each well and mixing thoroughly. Allowed HDAC reactions to proceed for 1 hour and then stopped them by addition of Fluor de Lys™ Developer (50 μl). Incubated plate at room temperature (25° C.) for 10-15 min. Read samples in a microtiter-plate reading fluorimeter capable of excitation at a wavelength in the range 350-380 nm and detection of emitted light in the range 440-460 nm.

human VEGFR2 = molecular target: T2, human VEGFR2 (Homo sapiens, UniProt P35968); experiment: VEGFR2/KDR radioisotope kinase assay; settings: 100 μM ATP; read-out: VEGFR2 IC50
T2 construct: kinase domain (amino acids 790 to end) fragment; 6xHis (N); made in house; host or cells: Sf21 insect cells (baculovirus)
T2 sequence (P35968 790-1356 limits assumed): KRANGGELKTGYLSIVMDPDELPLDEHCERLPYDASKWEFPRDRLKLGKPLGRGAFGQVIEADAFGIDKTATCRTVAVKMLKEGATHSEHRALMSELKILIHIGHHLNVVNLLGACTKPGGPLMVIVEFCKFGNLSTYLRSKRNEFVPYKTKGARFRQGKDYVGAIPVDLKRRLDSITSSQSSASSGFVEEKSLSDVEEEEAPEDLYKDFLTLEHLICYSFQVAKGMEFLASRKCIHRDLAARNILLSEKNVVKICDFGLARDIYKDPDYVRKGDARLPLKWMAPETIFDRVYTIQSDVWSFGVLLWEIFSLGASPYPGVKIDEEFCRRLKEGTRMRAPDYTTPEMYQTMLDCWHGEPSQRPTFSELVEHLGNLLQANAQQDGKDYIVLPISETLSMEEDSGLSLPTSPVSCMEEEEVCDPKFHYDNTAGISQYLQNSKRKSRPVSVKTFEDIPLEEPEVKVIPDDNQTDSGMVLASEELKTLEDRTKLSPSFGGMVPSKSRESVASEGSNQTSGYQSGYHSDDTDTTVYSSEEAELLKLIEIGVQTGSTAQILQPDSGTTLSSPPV
Procedure: (a) An In Vitro Assay which-Determines the Ability of a Test Compound to Inhibit a Receptor Tyrosine Kinase.
The ability of compounds to inhibit receptor kinase (VEGFR2 and PDGFR-beta) activity was assayed using standard radioisotope assay for kinase. […] The proteins were purified using Ni2+/NTA agarose affinity column to purity
>85% as determined by coomassie blue-stained SDS-PAGE gel. For VEGFR2/KDR assay, p33 ATP tracers were incubated with purified recombinant VEGFR2 kinase to monitor the enzyme activity. In this assay, reactions were carried out in the presence of 0.1 mg/ml VEGFR2 kinase and 0.33 mg/ml myelin basic protein. The reaction was carried out at 30° C. for 120 minutes in a final assay condition contained 50 mM Tris-HCl, pH 7.5, 300 mM NaCl, 0.1 mM EGTA, 0.03% Brij 35, 270 mM sucrose, 1 mM benzamidine, 0.2 mM PMSF, 0.1% 2-mercaptoethanol and 100 μM ATP. An equal volume of 25% TCA was added to stop the reaction and precipitate the labeled proteins. Precipitated proteins were trapped onto glass fiber B filterplates and excess unlabeled p33 ATP was washed off. The plates were allowed to air-dry prior to the addition of 30 uL/well of Packard Microscint 20. The amount of incorporated isotope was measured using a Perkin Elmer TopCount plate reader. Different concentrations of compounds were added to reaction to assess the activity of compounds to inhibit VEGFR2 kinase. IC50 was calculated using Prism software with sigmoidal dose-response curve fitting.

T1 sequence (P00533 672-1210): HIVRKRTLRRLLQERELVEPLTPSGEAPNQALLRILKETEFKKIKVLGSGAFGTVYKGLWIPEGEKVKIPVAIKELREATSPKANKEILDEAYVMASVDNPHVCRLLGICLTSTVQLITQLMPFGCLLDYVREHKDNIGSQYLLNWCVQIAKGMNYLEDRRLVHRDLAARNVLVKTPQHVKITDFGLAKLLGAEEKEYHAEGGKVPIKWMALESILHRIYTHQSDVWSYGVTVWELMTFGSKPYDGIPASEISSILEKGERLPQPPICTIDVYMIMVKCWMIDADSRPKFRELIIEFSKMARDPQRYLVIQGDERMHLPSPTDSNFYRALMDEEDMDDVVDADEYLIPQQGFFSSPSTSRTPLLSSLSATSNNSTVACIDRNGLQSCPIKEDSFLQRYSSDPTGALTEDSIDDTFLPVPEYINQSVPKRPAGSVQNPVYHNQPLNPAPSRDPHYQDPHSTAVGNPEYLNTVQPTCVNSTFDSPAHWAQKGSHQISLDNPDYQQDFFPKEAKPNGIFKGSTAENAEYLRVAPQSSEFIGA

## COc1cc2c(Nc3ccc4[nH]c(C)cc4c3F)ncnc2cc1OCCCCC(=O)NO [Compound 12, 5-(4-(4-fluoro-2-methyl-1H-indol-5-ylamino)-6-methoxyquinazolin-7-yloxy)-N-hydroxypentanamide]
Human EGFR
  IC50: 100 to 1000 nM
HDAC
  IC50: 100 to 1000 nM

## COc1cc2c(Nc3ccc4occc4c3)ncnc2cc1OCCCCCCC(=O)NO [Compound 6, 7-(4-(benzofuran-5-ylamino)-6-methoxyquinazolin-7-yloxy)-N-hydroxyheptanamide]
HDAC
  IC50: < 100 nM
Human VEGFR2
  IC50: 1000 to 10000 nM

## COc1cc2c(Oc3ccc4[nH]c(C)cc4c3F)ncnc2cc1OCCCCC(=O)NO [Compound 9, 5-(4-(4-fluoro-2-methyl-1H-indol-5-yloxy)-6-methoxyquinazolin-7-yloxy)-N-hydroxypentanamide]
HDAC
  IC50: 100 to 1000 nM
